Measurements as given in US4554272A, “Substituted quinazolino-1,4-benzodiazepin-6,9-diones and their preparation” (Merck & Co., Inc., priority 1985, dated 1985).

Experiments:
[1] = target: T1, CCK receptor (brain, cerebral cortex) (Cavia porcellus, UniProt H0VZC5); assay: CCK Receptor Binding (brain); set-up: species or system guinea pig (male Hartley); conditions: guinea pig cerebral cortex; 125I-CCK-33, pH 6.5, 25° C., 2 hours
T1 construct: The cerebral cortex is dissected and used as a receptor source; from tissue; host or cells: cerebral cortex of male Hartley guinea pig, washed membrane suspension
T1 sequence (H0VZC5 1-426): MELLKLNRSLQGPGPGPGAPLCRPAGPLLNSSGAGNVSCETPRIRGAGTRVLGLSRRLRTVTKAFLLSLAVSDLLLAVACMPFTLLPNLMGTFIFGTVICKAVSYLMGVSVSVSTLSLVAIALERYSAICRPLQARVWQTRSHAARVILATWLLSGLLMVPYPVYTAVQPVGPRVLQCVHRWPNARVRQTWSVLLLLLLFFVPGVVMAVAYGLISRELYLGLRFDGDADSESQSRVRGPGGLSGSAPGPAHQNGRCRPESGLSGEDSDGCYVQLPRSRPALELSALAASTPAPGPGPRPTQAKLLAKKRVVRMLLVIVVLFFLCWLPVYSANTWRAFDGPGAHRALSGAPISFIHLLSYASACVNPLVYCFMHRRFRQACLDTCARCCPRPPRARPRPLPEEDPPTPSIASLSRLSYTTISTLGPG
Description: (§1) Screening of the novel compounds according to the present invention to determine biological activity and obtain an IC50 value for them (in order to identify significant CCK-antagonism) is accomplished using an ^125 I-CCK receptor binding assay and in vitro isolated tissue preparations. These tests involve the following:
(§2) CCK Receptor Binding (brain) Method
(§3) CCK-33 is radiolabeled and the binding is performed according to the description for the pancreas method, with modifications according to Saito et al., J. Neurochem., 37, 483-490, 1981.
(§4) Male Hartley guinea pigs (300-500 g) are sacrificed by decapitation, and the brains are removed and placed in ice-cold 50 mM Tris HCl (Trizma-7.4) [pH 7.4 at 25° C.]. The cerebral cortex is dissected and used as a receptor source and each gram of fresh guinea pig brain tissue is homogenized in 10 ml of Tris/Trizma buffer with a Brinkman polytron PT-10. The homogenates are centrifuged at 42,000 g for 15 minutes, then the resulting pellets are resuspended in 80 volumes of binding assay buffer (10 mM N-2-hydroxyethyl-piperazine-N'-2-ethanesulfonic acid (HEPES), 5 mM MgCl2, 1 mM ethylene glycol-bis(β-amino-ethyl-ether-N,N'-tetraacetic acid (EGTA), 0.4% BSA and 0.25 mg/ml bacitracin, pH 6.5).
(§5) The remainder of the inding assay method is as described for the pancreas method, except that the reaction mixtures are incubated at 25° C. for 2 hours before […].
(§6) Representative formula I compounds listed were tested as CCK-antagonists (in I-CCK-8 pancreas and ^125 I-CCK Brain assays) with results, as tabulated in the following table.

[2] = system: CCK receptor (brain, cerebral cortex); assay: CCK Receptor Binding (brain); set-up: species or system guinea pig (male Hartley); conditions: in words, comment on Table 1 (pancreas vs brain); especially vs formula Ia and Example 13
Description: as §1, §2, §3, §4, §5, §6

[3] = target: T2, CCK receptor (pancreas) (Rattus norvegicus, UniProt P30551); assay: CCK Receptor Binding (pancreas); set-up: species or system rat (male Sprague-Dawley); conditions: for IC50: rat pancreas membranes, 125I-CCK-33, 37° C., 30 minutes, read-out: I-CCK-8 Pancreas IC50
T2 construct: The whole pancreas of a male Sprague-Dawley rat; from tissue; host or cells: whole pancreas of male Sprague-Dawley rat, washed membrane suspension
T2 sequence (P30551 1-444): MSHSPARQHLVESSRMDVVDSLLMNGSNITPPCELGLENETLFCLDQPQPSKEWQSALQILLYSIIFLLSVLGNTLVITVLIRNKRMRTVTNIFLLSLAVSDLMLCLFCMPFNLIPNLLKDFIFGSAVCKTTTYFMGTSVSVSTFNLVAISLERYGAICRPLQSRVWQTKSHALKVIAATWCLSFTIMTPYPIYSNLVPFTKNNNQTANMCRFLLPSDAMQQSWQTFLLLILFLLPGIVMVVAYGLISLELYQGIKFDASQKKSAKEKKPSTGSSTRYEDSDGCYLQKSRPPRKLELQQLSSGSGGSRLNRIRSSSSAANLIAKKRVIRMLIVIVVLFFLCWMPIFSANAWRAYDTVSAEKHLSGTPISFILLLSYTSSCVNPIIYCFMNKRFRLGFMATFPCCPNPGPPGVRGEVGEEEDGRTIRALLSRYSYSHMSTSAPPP
From the text: as §1
CCK Receptor Binding (pancreas) Method
CCK-33 is radiolabeled with ^125 I-Bolton Hunter reagent (2000 Ci/mmole), as described by Sankara et al. (J. Biol. Chem., 254, 9349-9351, 1979). Receptor binding is performed according to Innis and Snyder (Proc. Natl. Acad. Sci., 77, 6917-6921, 1980), with the minor modification of adding the additional protease inhibitors, phenylmethane sulfonyl fluoride and o-phenanthroline, which have no effect on the ^125 I-CCK receptor binding assay.
The whole pancreas of a male Sprague-Dawley rat (200-350 g), which has been sacrificed by decapitation, is dissected free of fat tissue and homogenized in 20 volumes of ice-cold 50 mM Tris HCl (pH 7.7 at 25° C.) with a Brinkman Polytron PT-10. The homogenates are centrifuged at 48,000 g for 10 minutes, then the resulting pellets are resuspended in Tris Buffer, centrifuged as above, and resuspended in 200 volumes of binding assay buffer (50 mM Tris HCl, pH 7.7 at 25° C., 5 mM dithiothreitol, 0.1 mM bacitracin, 1.2 mM phenylmethane sulfonyl fluoride and 0.5 mM o-phenanthroline).
For the binding assay, 25 μl of buffer (for total binding), or unlabeled CCK-8 sulfate sufficient to give a final concentration of 1 μM of CCK-8 (for nonspecific binding), or the compounds of the formula of the compounds according to the instant invention (for determination of antagonism to ^125 I-CCK binding) and 25 μl of ^125 I-CCK-33 (30,000-40,000 cpm), are added to 450 μl of the membrane suspensions in microfuge tubes. All assays are run in duplicate or triplicate, and the reaction mixtures are incubated at 37° C. for 30 minutes and centrifuged in a Beckman Microfuge (4 minutes) immediately after adding 1 ml of ice-cold incubation buffer. The supernatant is aspirated and discarded, and the pellets are counted with a Beckman Gamma 5000.
as §6

`CN1C(=O)[C@H](Cc2c[nH]c3ccccc23)n2c(nc3ccccc3c2=O)-c2ccccc21` [Example 19, 5-methyl-7β-[(1H-indol-3-yl)methyl]quinazolino(3,2-D)(1,4)benzodiazepin-6,9(5H,7H)-dione hydrate] was tested, and the IC50 [1] was 51 µM, the “selectivity compared with the other compounds” value [2] was “substantial change in selectivity” and the IC50 [3] was 104 µM.
Work on `C[C@H]1C(=O)Nc2ccccc2-c2nc3ccccc3c(=O)n21` [Example 14, 7β-methylquinazolino(3,2-D)(1,4)benzodiazepin-6,9-(5H,7H)-dione] yielded an IC50 [1] of 100 µM and an IC50 [3] of 100 µM.
With `O=C1Nc2ccccc2-c2nc3ccccc3c(=O)n2[C@H]1Cc1c[nH]c2ccccc12` [*, 7β-[(1H-indol-3-yl)methyl]quinazoline(3,2-D)(1,4)benzodiazepin-6,9(5H,7H)-dione, reference compound] the IC50 [1] was 110 µM and the IC50 [3] was 76 µM.
For `O=C1Nc2ccccc2-c2nc3ccccc3c(=O)n2[C@@H]1Cc1c[nH]c2ccccc12` [Example 13, 7α-[(1H-indol-3-yl)methyl]quinazolino(3,2-D)-1,4-benzodiazepin-6,9(5H,7H)-dione hydrate], the IC50 [1] was 100 µM, the “potency compared with the formula Ia compound” value ([3]; in words, comment on Table 1 (pancreas and brain binding)) was “improved” and the IC50 [3] was 67 µM.
`O=C1Nc2ccccc2-c2nc3ccccc3c(=O)n2[C@H]1Cc1ccc(O)cc1` [Example 16, 7β-[(4-hydroxyphenyl)methyl]quinazolino(3,2-D)(1,4)-benzodiazepin-6,9(5H,7H)-dione hydrate] showed an IC50 [1] of 100 µM and an IC50 [3] of 100 µM.
Work on `O=C1Cn2c(nc3ccccc3c2=O)-c2ccccc2N1` [Example 15, quinazolino(3,2-D)(1,4)benzodiazepin-6,9(5H,7H)-dione] yielded an IC50 [1] of 100 µM and an IC50 [3] of 100 µM.
